The results in this text go back to ChEMBL document CHEMBL1151823, “5-Bromo-8-methoxy-1-methyl-beta-carboline, an alkaloid from the New Zealand marine bryozoan Pterocella vesiculosa” (J Nat Prod, 2009).

≈ marks a conversion by molar mass, not a printed value.

In assay [1] the test system is Trichophyton mentagrophytes. In words: Antimicrobial activity against Trichophyton mentagrophytes measured per disk. In kind it is functional.
For a further assay, the system named is Candida albicans. Nature of the assay: Antimicrobial activity against Candida albicans measured per disk. In kind it is functional.
The next assay relates to P388. Nature of the assay: Cytotoxicity against mouse P388 cells. Format: functional, cell-based.
The subject of another assay is Bacillus subtilis. In words: Antimicrobial activity against Bacillus subtilis measured per disk. In kind it is functional.

In general, IC50 refers to the concentration that inhibits the measured activity by half. The low end stands for greater potency in that assay, the high end for weaker potency in that assay. In the case of `C=Cc1[nH]ccc2c3ccccc3nc1-2`, the results for the MID (in assay [1]; in the assay on Candida albicans; with Bacillus subtilis) were 0.1 µg/mL, 1.9 µg/mL and 1.9 µg/mL, respectively. In addition, 0.1 µg/mL (≈ 0.515 µM) corresponded to half-maximal inhibition in the assay with P388 (IC50).
Take `CCc1nccc2c1[nH]c1ccccc12`: the MID in assay [1] amounted to 1.9 µg/mL; in the assay with Candida albicans, 1.9 µg/mL; in the assay with Bacillus subtilis, 7.5 µg/mL. Besides, the IC50 in the assay on P388 was greater than 12.5 µg/mL.
Regarding `C=Cc1nccc2c1[nH]c1c(O)cccc12`, the MID worked out at 0.45 µg/mL in assay [1], 15 µg/mL in the assay on Candida albicans and 7.5 µg/mL in the assay with Bacillus subtilis. For the same molecule, 0.1 µg/mL (≈ 0.476 µM) corresponded to half-maximal inhibition in the assay with P388 (IC50).
On the same counts, the results for `C=Cc1nccc2c1[nH]c1c(OC)cccc12` are 0.45 µg/mL, 15 µg/mL, 7.5 µg/mL and 0.1 µg/mL (≈ 0.446 µM).
As for `COc1ccc(Br)c2c1[nH]c1c(C)nccc12`, the results for the MID (in assay [1]; in the assay with Candida albicans; in the assay on Bacillus subtilis) were 7.5 µg/mL, 7.5 µg/mL and 2 µg/mL, respectively. Moreover, half-maximal inhibition in the assay with P388 (IC50) was put at 5.09 µg/mL (≈ 17.5 µM).
On to `CCc1nccc2c1[nH]c1c(O)cccc12`, for which the MID (in assay [1]; in the assay with Candida albicans; with Bacillus subtilis) was 30 µg/mL in each case. In the assay on P388, this molecule gave an IC50 greater than 12.5 µg/mL.
For `CCc1nccc2c1[nH]c1c(OC)cccc12`, the MID in assay [1] is 7.5 µg/mL; with Candida albicans, 7.5 µg/mL; with Bacillus subtilis it was greater than 60 µg/mL. In the assay with P388, this molecule came in with an IC50 greater than 12.5 µg/mL.
For `C=Cc1nccc2c1[nH]c1c(OC(C)=O)cccc12`, half-maximal inhibition with P388 (IC50) was put at 0.65 µg/mL (≈ 2.58 µM).
In the case of `Cc1nccc2c1[nH]c1ccccc12` [HARMAN], the results for the MID (in assay [1]; in the assay with Candida albicans; with Bacillus subtilis) were 3.7 µg/mL, 1.9 µg/mL and 7.5 µg/mL, respectively. Besides, the concentration for half-maximal inhibition (IC50) in the assay on P388 is greater than 12.5 µg/mL.
